Results published in ChEMBL document CHEMBL1129269, “1-aryl-4-[(1-tetralinyl)alkyl]piperazines: alkylamido and alkylamino derivatives. Synthesis, 5-HT1A receptor affinity, and selectivity. 3” (J Med Chem, 1996).

Columns and labels:
[1] = target: T1, D(2) dopamine receptor (Rattus norvegicus, UniProt P61169); test: biochemical
Description: Binding affinity to rat Dopamine receptor D2 expressed in CHO cells was determined using [125 I ] iodosulpride as radioligand

[2] = target: Serotonin 2 (5-HT2) receptor (Rattus norvegicus, UniProt P30994+P08909+P14842); test: Binding affinity against 5-hydroxytryptamine 2 receptor in rat brain using [3H]ketanserin as radioligand; assay type: tissue-based
[3] = target: T2, Adrenergic receptor alpha-2 (Rattus norvegicus, UniProt P22086+P19328+P22909); test: Binding affinity against Alpha-2 adrenergic receptor in rat brain membrane using [3H]yohimbine as radioligand; assay type: cell membranes
T2 sequence (P22086 whole entry): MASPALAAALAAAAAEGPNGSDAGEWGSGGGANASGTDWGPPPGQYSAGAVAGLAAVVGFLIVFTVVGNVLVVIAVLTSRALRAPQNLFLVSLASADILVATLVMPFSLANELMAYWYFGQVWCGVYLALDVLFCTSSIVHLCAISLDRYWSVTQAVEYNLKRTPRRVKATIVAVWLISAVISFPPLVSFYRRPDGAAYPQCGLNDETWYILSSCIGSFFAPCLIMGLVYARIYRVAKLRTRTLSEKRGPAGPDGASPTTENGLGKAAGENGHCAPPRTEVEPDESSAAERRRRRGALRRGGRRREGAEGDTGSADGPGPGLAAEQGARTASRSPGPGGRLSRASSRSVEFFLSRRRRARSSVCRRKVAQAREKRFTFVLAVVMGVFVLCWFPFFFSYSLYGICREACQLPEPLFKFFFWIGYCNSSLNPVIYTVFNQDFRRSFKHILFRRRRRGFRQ
T2 sequence (P19328 whole entry): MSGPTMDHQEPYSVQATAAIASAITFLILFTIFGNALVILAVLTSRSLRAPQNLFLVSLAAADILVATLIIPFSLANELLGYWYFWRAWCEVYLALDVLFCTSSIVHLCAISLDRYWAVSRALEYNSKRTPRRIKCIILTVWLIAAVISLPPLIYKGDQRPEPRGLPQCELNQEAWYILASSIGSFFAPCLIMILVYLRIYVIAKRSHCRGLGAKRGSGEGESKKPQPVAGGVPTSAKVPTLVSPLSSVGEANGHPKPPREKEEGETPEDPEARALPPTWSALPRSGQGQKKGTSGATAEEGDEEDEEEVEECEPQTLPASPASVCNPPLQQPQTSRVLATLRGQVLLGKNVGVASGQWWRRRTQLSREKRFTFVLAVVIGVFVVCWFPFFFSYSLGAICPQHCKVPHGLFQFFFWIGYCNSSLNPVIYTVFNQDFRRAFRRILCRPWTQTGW
T2 sequence (P22909 whole entry): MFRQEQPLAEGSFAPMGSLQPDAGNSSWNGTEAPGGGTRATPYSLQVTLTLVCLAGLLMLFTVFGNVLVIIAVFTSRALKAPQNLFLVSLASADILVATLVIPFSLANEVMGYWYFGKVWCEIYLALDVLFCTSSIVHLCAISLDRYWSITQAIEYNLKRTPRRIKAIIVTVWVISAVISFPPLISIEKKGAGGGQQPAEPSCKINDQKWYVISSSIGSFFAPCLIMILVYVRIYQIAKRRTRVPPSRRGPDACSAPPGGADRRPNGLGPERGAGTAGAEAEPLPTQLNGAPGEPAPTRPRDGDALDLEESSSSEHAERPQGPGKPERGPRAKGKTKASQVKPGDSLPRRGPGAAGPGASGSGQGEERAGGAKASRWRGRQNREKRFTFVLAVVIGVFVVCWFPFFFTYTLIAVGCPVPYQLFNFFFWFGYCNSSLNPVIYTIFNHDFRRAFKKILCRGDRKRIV

[4] = target: T3, 5-hydroxytryptamine receptor 1A (Rattus norvegicus, UniProt P19327); test: Binding affinity against serotonin 5-hydroxytryptamine 1A receptor in rat hippocampus membrane using [3H]8-OH-DPAT as radioligand; assay type: cell membranes
T3 sequence (P19327 whole entry): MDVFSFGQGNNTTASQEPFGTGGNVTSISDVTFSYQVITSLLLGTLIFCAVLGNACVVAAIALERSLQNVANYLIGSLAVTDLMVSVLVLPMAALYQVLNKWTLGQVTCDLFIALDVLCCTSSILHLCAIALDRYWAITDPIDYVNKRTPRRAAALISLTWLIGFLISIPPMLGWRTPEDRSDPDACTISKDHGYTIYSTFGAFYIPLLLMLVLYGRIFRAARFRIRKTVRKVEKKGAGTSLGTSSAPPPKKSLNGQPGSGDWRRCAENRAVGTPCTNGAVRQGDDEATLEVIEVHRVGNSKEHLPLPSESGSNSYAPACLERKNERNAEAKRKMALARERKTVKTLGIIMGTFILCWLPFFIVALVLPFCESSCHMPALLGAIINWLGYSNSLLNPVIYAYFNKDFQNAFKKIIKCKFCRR

[5] = target: T4, Adrenergic receptor alpha-1 (Rattus norvegicus, UniProt P15823+P23944+P43140); test: Binding affinity against Alpha-1 adrenergic receptor in rat brain membrane using [3H]prazosin as radioligand; assay type: cell membranes
T4 sequence (P15823 whole entry): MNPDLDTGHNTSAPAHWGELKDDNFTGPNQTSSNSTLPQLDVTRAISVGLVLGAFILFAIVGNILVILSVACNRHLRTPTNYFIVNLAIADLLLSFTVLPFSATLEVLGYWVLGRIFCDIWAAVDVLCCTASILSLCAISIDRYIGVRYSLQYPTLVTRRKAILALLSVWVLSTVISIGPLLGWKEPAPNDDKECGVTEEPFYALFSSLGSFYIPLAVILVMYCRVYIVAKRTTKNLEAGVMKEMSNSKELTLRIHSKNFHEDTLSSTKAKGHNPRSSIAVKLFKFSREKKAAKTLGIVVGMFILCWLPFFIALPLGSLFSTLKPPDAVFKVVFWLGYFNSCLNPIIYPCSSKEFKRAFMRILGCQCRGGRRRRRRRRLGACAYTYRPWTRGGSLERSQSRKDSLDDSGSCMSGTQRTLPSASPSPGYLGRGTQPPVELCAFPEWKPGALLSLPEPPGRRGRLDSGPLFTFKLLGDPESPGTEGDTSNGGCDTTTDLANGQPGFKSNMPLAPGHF
T4 sequence (P23944 whole entry): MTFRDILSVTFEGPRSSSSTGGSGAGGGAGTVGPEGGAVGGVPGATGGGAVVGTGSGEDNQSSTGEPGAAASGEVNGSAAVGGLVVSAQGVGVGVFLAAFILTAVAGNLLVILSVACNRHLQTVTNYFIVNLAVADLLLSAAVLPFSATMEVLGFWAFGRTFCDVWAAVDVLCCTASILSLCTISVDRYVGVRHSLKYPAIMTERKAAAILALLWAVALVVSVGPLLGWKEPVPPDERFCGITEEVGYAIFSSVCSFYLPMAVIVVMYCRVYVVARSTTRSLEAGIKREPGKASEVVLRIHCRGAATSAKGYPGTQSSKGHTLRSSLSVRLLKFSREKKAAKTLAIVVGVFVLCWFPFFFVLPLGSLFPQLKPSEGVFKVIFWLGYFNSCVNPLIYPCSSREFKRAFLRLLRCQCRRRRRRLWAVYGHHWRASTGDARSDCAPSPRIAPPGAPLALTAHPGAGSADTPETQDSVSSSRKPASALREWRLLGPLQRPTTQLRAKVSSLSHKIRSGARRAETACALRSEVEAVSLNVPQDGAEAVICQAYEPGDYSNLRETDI
T4 sequence (P43140 whole entry): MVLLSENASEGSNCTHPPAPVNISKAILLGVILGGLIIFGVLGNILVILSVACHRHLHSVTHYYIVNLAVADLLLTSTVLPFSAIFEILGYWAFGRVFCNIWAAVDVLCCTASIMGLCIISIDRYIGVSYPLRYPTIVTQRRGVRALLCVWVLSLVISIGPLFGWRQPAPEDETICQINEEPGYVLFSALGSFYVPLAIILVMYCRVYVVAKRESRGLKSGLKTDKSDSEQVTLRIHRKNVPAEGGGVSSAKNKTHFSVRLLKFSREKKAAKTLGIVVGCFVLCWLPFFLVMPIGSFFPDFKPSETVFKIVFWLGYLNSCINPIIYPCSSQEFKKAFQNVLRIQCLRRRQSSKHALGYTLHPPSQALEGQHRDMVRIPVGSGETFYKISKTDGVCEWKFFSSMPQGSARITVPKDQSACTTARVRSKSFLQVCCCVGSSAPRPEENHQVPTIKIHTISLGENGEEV

[6] = target: T1, D(2) dopamine receptor; test: Binding affinity against Dopamine receptor D2 in rat striatal membrane using [3H]spiroperidol as radioligand; assay type: cell membranes, Striatum
[7] = target: T3, 5-hydroxytryptamine receptor 1A; test: Binding affinity against 5-hydroxytryptamine 1A receptor in rat hippocampus membranes using [3H]8-OH-DPAT as radioligand; assay type: cell membranes, Membrane

T1 sequence (P61169 whole entry): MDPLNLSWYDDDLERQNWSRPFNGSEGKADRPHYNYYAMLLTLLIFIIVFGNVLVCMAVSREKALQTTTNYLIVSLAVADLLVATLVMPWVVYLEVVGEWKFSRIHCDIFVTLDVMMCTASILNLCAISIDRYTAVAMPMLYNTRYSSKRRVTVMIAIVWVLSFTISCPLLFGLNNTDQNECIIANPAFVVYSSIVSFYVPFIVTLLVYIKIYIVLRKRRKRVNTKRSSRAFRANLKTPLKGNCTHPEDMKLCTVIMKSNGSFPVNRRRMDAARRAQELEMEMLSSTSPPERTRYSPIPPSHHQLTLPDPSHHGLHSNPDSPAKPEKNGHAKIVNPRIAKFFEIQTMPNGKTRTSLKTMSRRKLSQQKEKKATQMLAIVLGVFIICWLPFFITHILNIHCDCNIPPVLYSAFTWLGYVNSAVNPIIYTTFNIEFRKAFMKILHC

| IC50 [1] [µM] | IC50 [2] [µM] | IC50 [3] [µM] | IC50 [4] [µM] | IC50 [5] [µM] | IC50 [6] [µM] | IC50 [7] [µM] | Compound |
| --- | --- | --- | --- | --- | --- | --- | --- |
| – | 0.349 | 0.186 | 0.063 | 0.019 | 0.783 | – | COc1cccc2c1CCCC2C(=O)NCCCN1CCN(c2ccccc2)CC1 (stereo not drawn) |
| – | 9.14 | 0.095 | – | 0.725 | 1.85 | – | COc1cccc2c1CCCC2NCCN1CCN(c2ccccn2)CC1 (stereo not drawn) |
| – | 0.726 | 1.33 | – | 0.534 | 1.9 | 0.135 | COc1cccc2c1CCCC2NC(=O)CCN1CCN(c2ccccn2)CC1 (stereo not drawn) |
| – | 0.841 | 1.25 | – | 0.153 | 0.761 | – | COc1ccccc1N1CCN(CCC(=O)NC2CCCc3c(OC)cccc32)CC1 (stereo not drawn) |
| – | 1.2 | 2.68 | – | 0.313 | 2.97 | 0.311 | COc1cccc2c1CCCC2NC(=O)CCN1CCN(c2ccccc2)CC1 (stereo not drawn) |
| – | 3.3 | 0.458 | – | 0.881 | 1.06 | 0.01 | COc1ccccc1N1CCN(CCCNC2CCCc3c(OC)cccc32)CC1 (stereo not drawn) |
| – | 2.72 | 0.31 | – | 0.79 | 1.2 | 0.092 | COc1cccc2c1CCCC2NCCN1CCN(c2ccccc2)CC1 (stereo not drawn) |
| – | 1.9 | 1.42 | – | 1.15 | 1.1 | 0.116 | COc1cccc2c1CCCC2CNCCN1CCN(c2ccccc2)CC1 (stereo not drawn) |
| – | 0.134 | 0.144 | – | 0.159 | 0.594 | 0.134 | COc1cccc2c1CCCC2C(=O)N(C)CCCN1CCN(c2ccccc2)CC1 (stereo not drawn) |
| – | 1.56 | 1.85 | 0.416 | 0.427 | 4.04 | – | COc1cccc2c1CCCC2C(=O)NCCN1CCN(c2ccccc2)CC1 (stereo not drawn) |
| – | 0.428 | 0.746 | – | 0.327 | 0.819 | 0.095 | COc1cccc2c1CCCC2C(=O)NCCCN1CCN(c2ccccn2)CC1 (stereo not drawn) |
| – | 0.33 | 0.017 | 0.00077 | 0.0065 | – | – | COc1ccccc1N1CCN(CCCC2CCCc3c(OC)cccc32)CC1 (stereo not drawn) |
| 0.14 | 0.25 | 0.048 | 0.00054 | 0.066 | – | – | COc1cccc2c1CCCC2CCCN1CCN(c2ccccn2)CC1 (stereo not drawn) |
| – | 0.848 | 0.25 | – | 0.51 | 0.882 | 0.271 | COc1cccc2c1CCCC2C(=O)N(C)CCN1CCN(c2ccccc2)CC1 (stereo not drawn) |
| – | 1.74 | 0.112 | – | 0.887 | 0.073 | 0.0087 | COc1ccccc1N1CCN(CCN(C)C2CCCc3c(OC)cccc32)CC1 (stereo not drawn) |
| – | 2.04 | 0.564 | 0.016 | 0.084 | 0.116 | – | COc1ccccc1N1CCN(CCCNC(=O)C2CCCc3c(OC)cccc32)CC1 (stereo not drawn) |
| – | 1.71 | 1.38 | 0.035 | – | 0.448 | – | COc1ccccc1N1CCN(CCNC(=O)C2CCCc3c(OC)cccc32)CC1 (stereo not drawn) |
| – | > 10 | > 10 | – | 5.98 | > 10 | – | COc1cccc2c1CCCC2NC(=O)CN1CCN(c2ccccc2)CC1 (stereo not drawn) |
| – | 1.27 | 7.22 | 0.173 | 0.838 | 2.44 | – | COc1cccc2c1CCCC2C(=O)NCCN1CCN(c2ccccn2)CC1 (stereo not drawn) |
| – | 2.69 | 0.788 | – | 0.626 | 2.16 | 0.053 | COc1cccc2c1CCCC2NCCCN1CCN(c2ccccc2)CC1 (stereo not drawn) |
| 0.11 | 0.23 | 0.26 | 0.0005 | 0.043 | – | – | COc1cccc2c1CCCC2CCCN1CCN(c2ccccc2)CC1 (stereo not drawn) |
| – | 1.07 | 0.183 | – | 0.297 | 0.332 | 0.307 | COc1ccccc1N1CCN(CCN(C)C(=O)C2CCCc3c(OC)cccc32)CC1 (stereo not drawn) |

| Compound | IC50 [1] [µM] | IC50 [2] [µM] | IC50 [3] [µM] | IC50 [4] [µM] | IC50 [5] [µM] | IC50 [6] [µM] | IC50 [7] [µM] |
| --- | --- | --- | --- | --- | --- | --- | --- |
| CCCN(CCC)C1CCc2cccc(O)c2C1 (stereo not drawn) [8-OH-DPAT] | 0.0052 | > 10 | 0.81 | – | – | – | – |
